Laboratory results from patent US20250275959A1, “COMPOUNDS AND METHODS OF THEIR USE” (LEXICON PHARMACEUTICALS, INC., priority 2024, published 2025).

Assay: Murine diet-induced obesity (DIO) model, Compounds B-D study
Type: in vivo, C57BL/6J mice
Settings: DIO mice; for mean adipose weights versus control group: abdominal adipose tissue
Description: The effects of four representative compounds of the invention were tested in a mouse model of diet-induced obesity (DIO): • Compound A is (R)—N-(tert-butylsulfonyl)-4-(1-(5-(pyridin-3-yloxy)pyridin-2-yl)ethoxy)-3-(trifluoromethyl)benzamide; • Compound B is (R)-4-(1-(5-(cyclopropylmethoxy)pyridin-2-yl)propoxy)-N-((4-(2-(dimethylamino)ethoxy)phenyl)sulfonyl)-2,3-difluorobenzamide; • Compound C is (R)—N-((4-(2-(dimethylamino)ethoxy)piperidin-1l-yl)sulfonyl)-2,3-difluoro-4-(1-(5-(pyridin-2-yloxy)pyridin-2-yl)propoxy)benzamide; and • Compound D is (R)-2,3-difluoro-N-((4-methylpiperazin-1-yl)sulfonyl)-4-(1-(5-(pyridin-2-yloxy)pyridin-2-yl)propoxy)benzamide.
The mice used in these experiments were C57BL/6J mice fed a high-fat diet (D12492 from Research Diets) ad libitum during the study period. The vehicle and test article formulations were 10% w/v Solutol in water.
In this study, three compounds tested at 30 mg/kg were compared against vehicle control over a month. After their acclimation period, DIO mice were equally divided into groups of ten mice each based on body weight. The animals were pre-dosed for three days prior to formal dosing (once per day treatment every group), as well as weight and food intake were recorded from Day −2 onwards. From Day 1 to Day 27, the animals in the dosing group were administered orally by gavage at 5:00 p.m. every day. All animals were fasted overnight after dosing on Day 28 and Day 29. Then the blood (retro-orbital bleed) of mice from each group was collected at 7:00 a.m. to separate out the serum for measuring total cholesterol levels (TC), triglyceride (TG), aminotransferase alanine (ALT), aspartate aminotransferase (AST) and total bilirubin (TBil) levels on Day 29. On day 30, all animals were performed OGTT test (0 min, 15 min, 30 min, 60 min, 90 min and 120 min) and measured insulin levels (0 min, 15 min, 30 min and 60 min). On day 32, all animals were injected insulin after 4 hours fasting, then performed ITT test (0 min, 15 min, 30 min, 60 min and 90 min). On day 33, Epididymal white adipose tissue (eWAT), jejunum, liver, heart and brain were collected; eWAT, liver and heart weights were recorded. All of the adipose tissue in the abdominal cavity was collected and weighted, and the fatty tissue coefficient (body fat ratio) was calculated and then stored at −80° C. for inspection.
• 1. Body weight and Food Consumption: Pre-dose every day from Day −2 onwards. • 2. Day −2,—1 and Day 0: Handle mice and gavage with vehicle. • 3. Day 1˜27: Dose˜5:00 PM. • 4. Day 28: Dose˜5:00 PM. Fast overnight. • 5. Day 29: Determine total cholesterol levels and triglyceride, ALT, AST, total bilirubin levels˜7:00 AM. Resume feeding. • 6. Day 29: Dose˜5:00 PM. Fast overnight. • 7. Day 30: (No drug administration) Oral glucose tolerance test (OGTT) with glucose levels measured at Pre-dose, 15 min, 30 min, 60 min, 90 min and 120 min after the glucose challenge. And insulin levels will be test at time 0 min, 15 min, 30 min and 60 min after the glucose challenge. • 8. Day 30˜31: Dose˜5:00 PM. • 9. Day 32: (No drug administration) ITT test (two days after the OGTT test): Fast 4 h. After insulin injection, the levels of glucose will be measured at Pre-dose, 15 min, 30 min, 60 min and 90 min. • 10. After the ITT test. Collect serum with a terminal bleed from all 50 mice. • 11. Collect epidydimal WAT (eWAT) pad, jejunum, liver, heart, and brain. • 12. Record eWAT, liver, and heart weights. • 13. Before freezing tissue/serum: • (i) Assess Drug Concentration; serum, liver, eWAT, heart, jujenum, and brain. (25 serum samples; 5 mice/group will progress to biomarker study and remaining 25 serum samples saved for future analysis). • 14. Prepare liver, heart and eWAT tissue for histopathology analysis. • (ii) Liver for all 50 mice; HE staining to assess liver steatosis. • (iii) Heart or all 50 mice; HE and DAPI staining to assess cardiac morphology. […]

| SMILES | mean body weight versus control group (30 mg/kg oral daily) | overall food consumption versus control group (30 mg/kg oral daily) | Body Weight (g)/Day (30 mg/kg oral daily, Day 1) | Body Weight (g)/Day (30 mg/kg oral daily, Day 2) | Body Weight (g)/Day (30 mg/kg oral daily, Day 3) | Body Weight (g)/Day (30 mg/kg oral daily, Day 4) | Body Weight (g)/Day (30 mg/kg oral daily, Day 5) | Body Weight (g)/Day (30 mg/kg oral daily, Day 6) | Body Weight (g)/Day (30 mg/kg oral daily, Day 7) | Body Weight (g)/Day (30 mg/kg oral daily, Day 8) | Body Weight (g)/Day (30 mg/kg oral daily, Day 9) | Body Weight (g)/Day (30 mg/kg oral daily, Day 10) | Body Weight (g)/Day (30 mg/kg oral daily, Day 11) | Body Weight (g)/Day (30 mg/kg oral daily, Day 12) | Body Weight (g)/Day (30 mg/kg oral daily, Day 13) | Body Weight (g)/Day (30 mg/kg oral daily, Day 14) | Body Weight (g)/Day (30 mg/kg oral daily, Day 15) | Body Weight (g)/Day (30 mg/kg oral daily, Day 16) | Body Weight (g)/Day (30 mg/kg oral daily, Day 17) | Body Weight (g)/Day (30 mg/kg oral daily, Day 18) | also measured |
| --- | --- | --- | --- | --- | --- | --- | --- | --- | --- | --- | --- | --- | --- | --- | --- | --- | --- | --- | --- | --- | --- |
| CC[C@@H](Oc1ccc(C(=O)NS(=O)(=O)c2ccc(OCCN(C)C)cc2)c(F)c1F)c1ccc(OCC2CC2)cn1 [Compound B, (R)-4-(1-(5-(cyclopropylmethoxy)pyridin-2-yl)propoxy)-N-((4-(2-(dimethylamino)ethoxy)phenyl)sulfonyl)-2,3-difluorobenzamide] | significantly lower than that of the control group from Day 15 to the end | significantly lower than that of the control group | 42.2 ± 4.7 g | 42.2 ± 4.5 g | 42.3 ± 4.7 g | 43 ± 3.9 g | 43.1 ± 3.9 g | 43 ± 4.1 g | 42.8 ± 4 g | 43.1 ± 4.3 g | 42.9 ± 4.5 g | 43.3 ± 4.5 g | 43.1 ± 4.6 g | 42.7 ± 4.6 g | 42.5 ± 4.6 g | 42.3 ± 4.6 g | 42.6 ± 4.5 g | 42.5 ± 4.5 g | 41.7 ± 4.6 g | 42.1 ± 4.8 g | Body Weight (g)/Day (30 mg/kg oral daily, Day 19): 42.2 ± 4.7 g; Body Weight (g)/Day (30 mg/kg oral daily, Day 20): 42.2 ± 4.5 g; Body Weight (g)/Day (30 mg/kg oral daily, Day 21): 42.3 ± 4.7 g; Body Weight (g)/Day (30 mg/kg oral daily, Day 22): 42.4 ± 4.7 g; Body Weight (g)/Day (30 mg/kg oral daily, Day 23): 42.6 ± 4.7 g; Body Weight (g)/Day (30 mg/kg oral daily, Day 24): 42.6 ± 4.4 g; Body Weight (g)/Day (30 mg/kg oral daily, Day 25): 42.5 ± 4.8 g; Body Weight (g)/Day (30 mg/kg oral daily, Day 26): 42.8 ± 4.7 g; Body Weight (g)/Day (30 mg/kg oral daily, Day 27): 43 ± 4.8 g; Body Weight (g)/Day (30 mg/kg oral daily, Day 28): 42.9 ± 4.7 g; Body Weight (g)/Day (30 mg/kg oral daily, Day 29): 42.3 ± 4.4 g; Body Weight (g)/Day (30 mg/kg oral daily, Day 30): 40.4 ± 4.2 g; Body Weight (g)/Day (30 mg/kg oral daily, Day 31): 40.9 ± 4.2 g; Body Weight (g)/Day (30 mg/kg oral daily, Day 32): 40.3 ± 4.1 g; Body Weight (g)/Day (30 mg/kg, Day 0 (pre-dose)): 42.1 ± 4.8 g; eWAT coefficient versus control group (30 mg/kg, Day 33): slightly lower than that of the control group; Body Weight (g)/Day (30 mg/kg, Day −1 (pre-dose)): 41.7 ± 4.6 g; Body Weight (g)/Day (30 mg/kg, Day −2 (pre-dose)): 42.5 ± 4.5 g; mean adipose weights versus control group (30 mg/kg): significantly lower than that of the control group; ITT blood glucose versus control group (Day 32, at 30 minutes and 60 minutes after insulin): significantly lower than that of the control group |
| CC[C@@H](Oc1ccc(C(=O)NS(=O)(=O)N2CCC(OCCN(C)C)CC2)c(F)c1F)c1ccc(Oc2ccccn2)cn1 [Compound C, (R)-N-((4-(2-(dimethylamino)ethoxy)piperidin-1-yl)sulfonyl)-2,3-difluoro-4-(1-(5-(pyridin-2-yloxy)pyridin-2-yl)propoxy)benzamide] | significantly lower than that of the control group from Day 23 | significantly lower than that of the control group | 45 ± 4.9 g | 44.8 ± 5 g | 44.3 ± 4.9 g | 44.3 ± 4.9 g | 44.1 ± 4.9 g | 44 ± 4.7 g | 43.5 ± 4.9 g | 44 ± 5 g | 44.2 ± 4.8 g | 44.2 ± 4.7 g | 44.4 ± 4.8 g | 43.9 ± 4.9 g | 43.7 ± 4.7 g | 43.7 ± 4.7 g | 43.9 ± 4.8 g | 44.1 ± 4.8 g | 43.5 ± 4.7 g | 43.6 ± 4.6 g | Body Weight (g)/Day (30 mg/kg oral daily, Day 19): 43.9 ± 4.9 g; Body Weight (g)/Day (30 mg/kg oral daily, Day 20): 44.1 ± 4.8 g; Body Weight (g)/Day (30 mg/kg oral daily, Day 21): 44.2 ± 5 g; Body Weight (g)/Day (30 mg/kg oral daily, Day 22): 44.1 ± 5.1 g; Body Weight (g)/Day (30 mg/kg oral daily, Day 23): 44.1 ± 5.3 g; Body Weight (g)/Day (30 mg/kg oral daily, Day 24): 43.8 ± 5.3 g; Body Weight (g)/Day (30 mg/kg oral daily, Day 25): 43.9 ± 5.2 g; Body Weight (g)/Day (30 mg/kg oral daily, Day 26): 43.9 ± 5.2 g; Body Weight (g)/Day (30 mg/kg oral daily, Day 27): 44.1 ± 5.2 g; Body Weight (g)/Day (30 mg/kg oral daily, Day 28): 43.9 ± 5.3 g; Body Weight (g)/Day (30 mg/kg oral daily, Day 29): 43.2 ± 5.2 g; Body Weight (g)/Day (30 mg/kg oral daily, Day 30): 41.4 ± 5 g; Body Weight (g)/Day (30 mg/kg oral daily, Day 31): 41.6 ± 5.2 g; Body Weight (g)/Day (30 mg/kg oral daily, Day 32): 41 ± 5 g; Body Weight (g)/Day (30 mg/kg, Day 0 (pre-dose)): 44.9 ± 5.1 g; Body Weight (g)/Day (30 mg/kg, Day −1 (pre-dose)): 44.9 ± 5.3 g; Body Weight (g)/Day (30 mg/kg, Day −2 (pre-dose)): 44.8 ± 5.2 g; mean adipose weights versus control group (30 mg/kg): significantly lower than that of the control group; ITT blood glucose versus control group (Day 32, at 15, 30, 60 and 90 minutes after insulin): significantly lower than that of the control group |
